Test results taken from patent US20170240522A1, “BENZOTHIOPHENE, BENZYLOXYBENZYLIDENE AND INDOLINE DERIVATIVES USEFUL FOR THE TREATMENT OF TUBERCULOSIS” (priority 2014, published 2017).

Tests used:
[1] = test system: several other mycobacteria and non-mycobacterial pathogens; test: REMA assay of non-Mtb strains; type: cell-based
[2] = test system: Mtb culture filtrate proteins; test: Secretome analysis of culture filtrate (LC/MS-MS); type: cell-based, Mycobacterium tuberculosis; settings: 5 μM
Description: For the secretome analysis 10 μg of protein was reconstituted in 200 μl of 4 M Urea, 10% acetonitrile and buffered with Tris-HCl pH 8.5 to a final concentration of 30 mM. Proteins were reduced in 10 mM dithioerythritol (DTE) at 37° C. for 60 min. and then alkylated in 40 mM iodoacetamide at 37° C. for 45 min. Reactions were quenched by addition of DTE to a final concentration of 10 mM. First, protein digestion was performed using Lys-C (1:50 enzyme:protein) for 2 hours at 37° C. The lysates were then diluted 5-fold and a second digestion was performed overnight at 37° C. using mass spectrometry grade trypsin gold (1:50 enzyme:protein) and 10 mM CaCl2. Reactions were stopped by addition of 8 μl of pure formic acid and peptides were concentrated by vacuum centrifugation to a final volume of 70 μl.
• After digestions, samples were dimethyl-labeled as described previously (Boersema et al., 2009). […]
• Each SAX fraction was resuspended in 2% acetonitrile, 0.1% FA and loaded on a capillary pre-column (Magic AQ C18; 3 μm by 200 Å; 2 cm×100 μm ID). […] Relative quantification within different conditions was obtained calculating the significance B values for each of the identified proteins using Perseus (Cox et al., 2009).

THP-1 macrophages = test: Survival of Mtb-infected activated THP-1 macrophages; type: cell-based, human; settings: activated THP-1, higher MOI, 10 μM

CSC(=S)N/N=C(\C)c1ccc(OCc2ccc(F)cc2F)cc1 [BBH7, N′-{1-[4-(2,4-Difluoro-benzyloxy)-phenyl]ethylidene}-hydrazinecarbodithioic acid methyl ester]
MIC99 [1]: > 100 µM
reduction of total culture filtrate protein [2]: 50%
abundance of ESX-5 substrates (EsxN/EsxM, PE25, PPE41) in culture filtrate ([2]; LC-MS/MS): significantly reduced in abundance
protection of THP-1 cells from Mtb-induced cell death (THP-1 macrophages): protected THP-1 cells from Mtb-induced cell death
